The text below walks through data of paper PMC3923716 (PLoS Neglected Tropical Diseases, 2014).

The target in assay [1] is B. malayi Hsp90 (Brugia malayi, UniProt A0A0H5S7Y7). In words: Competition FP assay (displacement of Cy3B-GA), B. malayi lysate. In kind it is binding. How it is done:
(§1) The FP assay was set up essentially as described previously, [25]. […] The equilibrium binding of Cy3B-GA and recombinant human Hsp90α (Enzo Life Sciences, Farmingdale, NY USA) or parasite lysate was determined by creating a two-fold dilution series of protein/extract for an eleven-point curve with the first column containing no protein. […] All FP values are expressed in millipolarization (mP) units with the mP value of free Cy3B-GA probe set to 50. Equilibrium binding constants were determined by nonlinear regression using a one-site binding model (GraphPad Prism software).
(§2) The relative binding affinities of inhibitors to human or parasite-derived Hsp90 was determined using competitive FP binding assays. […] For parasite-derived Hsp90, an amount of parasite lysate resulting in 50% of maximal Cy3B-GA binding was used. […] Stock solutions of each compound were prepared in DMSO at a concentration of 10 mM and 3-fold serial dilutions prepared in DMSO for eleven point curves. […] The final concentration of Cy3B-GA was 6 nM and the final DMSO concentration in all wells was 0.5%. Free Cy3B-GA (mP set to 50) and buffer only (background) wells were included as controls on each plate. Plates were incubated at 8°C with gentle shaking for 20 h.

The subject of assay [2] is B. pahangi Mf (microfilariae). In words: Mf viability in vitro. In kind it is cell-based, Brugia pahangi. The note with it: for % death by day 7: Mf; for effect of lower concentrations on Mf: concentrations below the killing concentration; for condition of Mf: 250 nM, day 7. How it is done:
As adult Brugia worms are limited in numbers, initial experiments assessed the effect of each drug on Mf viability. Mf were purified from infected animals essentially as described previously. In brief, following lavage of the peritoneal cavity of an infected animal with Hanks Balanced Salt Solution (HBSS) pre-warmed to 37°C, Mf were collected by centrifugation and then purified from host cells by centrifugation through lymphoprep (Sigma). This procedure was repeated twice. Mf were collected from the pellet, washed twice in HBSS and once in worm culture medium (WCM) which comprised RPMI 1640, (Invitrogen Cat No: 52400), containing 5% heat inactivated fetal calf serum, 1% glucose, 100 units/ml penicillin and 100 µg/ml streptomycin (all Invitrogen). Mf were then dispensed into the wells of a 24-well plate to give approximately 200 Mf in 2.0 ml, using a single well for each drug concentration. All procedures were carried out using aseptic techniques. The five novel compounds, plus GA and medium alone controls, were tested three times against Mf over the full range of concentrations.

In assay [3] the test system is adult B. malayi worms. The note with it: 48 h of drug exposure. The source says:
(§3) Plates were maintained for up to 10 days and the condition of adult parasites noted at regular intervals. In one experiment the effect of GA on Mf output by adult B. malayi worms was compared with B. pahangi. B. malayi worms were kindly provided by Prof. R. Maizels (University of Edinburgh). […] In all in vitro experiments, plates were viewed daily and the motility and condition of the parasites noted by two independent observers, of whom one was unaware of the contents of the well.

Assay [4] relates to adult B. pahangi worms. To be noted: 48 h of drug exposure.
Text: as §3

For assay [5], the target named is T1, recombinant human Hsp90α (Homo sapiens, UniProt P07900).
T1 construct: purchased Enzo Life Sciences
The assay is described as follows: Competition FP assay (displacement of Cy3B-GA), human Hsp90α. In kind it is binding. How it is done: as §1
The relative binding affinities of inhibitors to human or parasite-derived Hsp90 was determined using competitive FP binding assays. […] For parasite-derived Hsp90, an amount of parasite lysate resulting in 50% of maximal Cy3B-GA binding was used. […] Stock solutions of each compound were prepared in DMSO at a concentration of 10 mM and 3-fold serial dilutions prepared in DMSO for eleven point curves. […] The final concentration of Cy3B-GA was 6 nM and the final DMSO concentration in all wells was 0.5%. […] Plates were incubated at 8°C with gentle shaking for 20 h.

For assay [6], the target named is T2, B. pahangi Hsp90 (Brugia pahangi, UniProt O61998).
T2 construct: Adult worms of B. pahangi were obtained from infected jirds; from tissue; host or cells: whole adult B. pahangi worms, ground and lysed in HFB buffer
In words: Competition FP assay (displacement of Cy3B-GA), B. pahangi lysate. In kind it is binding. As to the method: Adult worms of B. pahangi were obtained from infected jirds after 3–4 months, exactly as described previously and were frozen in liquid nitrogen, ground in a pestle and mortar to a fine powder and re-suspended in an appropriate volume of HFB assay buffer (20 mM HEPES, pH 7.3, 50 mM KCl, 5 mM MgCl2, 20 mM Na2MoO4, 1% NP40). Protein concentrations were estimated using the BioRad protein assay. At this point lysates were freeze-dried for shipping to the USA.
as §1, §2

Assay [7] relates to Brugia Hsp90. In words: Competition FP assay, Brugia Hsp90 (species not separated). In kind it is binding. As to the method: as §1, §2
Assay [8] deals with adult female B. pahangi. In words: Adult female worm assay in vitro (Mf output and adult viability), continuous exposure. In kind it is cell-based, Brugia pahangi. The note with it: initial screen 2.0 µM to 100 nM, adult female worms. How it is done: For adult worm assays, adult female B. pahangi, 3–4 months old, were incubated individually in 2.0 ml of WCM overnight in 24-well plates and pre-screened for Mf production. […] For the drug experiments, six female worms of B. pahangi for each concentration of drug were cultured individually in 24-well plates in 2.0 ml of WCM containing drug, or carrier alone (DMSO) at a concentration equal to that in the highest concentration of drug. In some experiments, GA was used as a positive control. Initially, all five compounds were tested over selected concentrations starting at 2 µM to 100 nM (see Results for details). For Hsp90 inhibitors, Mf output by individual female worms is a sensitive indicator of adult worm viability and, in most experiments, was assessed at 72 h. In addition, adult worms were examined microscopically on a daily basis for 7–10 days to determine whether lower concentrations of drugs had any effects over a longer period of incubation. Results are expressed as mean Mf output ± SD over a 72 h period. Statistical significance between groups was calculated using the Mann Whitney test with P values<0.05 being considered significant.

The mark [9] stands for this setting: read-out: B. malayi IC50, best fit (95% confidence intervals).
[10] abbreviates: FP assay, best fit (95% confidence intervals), read-out: B. pahangi IC50.
Setting [11] is: best fit (95% confidence intervals), read-out: B. malayi IC50.

pEC50, pIC50: −log10 of the molar value. Like-named read-outs stand apart in the source and are kept apart here.

Take `COC1=C2C[C@@H](C)C[C@H](OC)[C@H](O)[C@@H](C)/C=C(\C)[C@H](OC(N)=O)[C@@H](OC)/C=C\C=C(/C)C(=O)NC(=CC1=O)C2=O` [Geldanamycin]: the pIC50 in assay [1] (setting [9]) was 7.92. Besides, the “% death by day 7” value in assay [2] (31.25 nM, listed as GA) is 90%. Besides, the “reduction in Mf output” value was determined as 74% in assay [3] (1.0 µM), 93% in assay [3] (2.0 µM), 78% in assay [4] (1.0 µM) and 92% in assay [4] (2.0 µM).

As to `CCNC(=O)c1cc2c(-c3cc(OCCN4CCCC4)c(Cl)cc3Cl)nc(N)nc2s1` [NVP-BEP800], the pIC50 is 7.89 in assay [5], 8.16 in assay [6], 8.06 in assay [1] (setting [9]) and roughly 8.15 in assay [7] (read-out: IC50 for binding to Brugia Hsp90). Besides, in assay [2] (Brugia pahangi, 168 h, read-out: EC50 against Mf viability), the pEC50 is roughly 6.60. Also, the “% death by day 7” value in assay [2] (500 nM) is reported as “majority of Mf”. Moreover, the “effect of lower concentrations on Mf” value in assay [2] (7 days) is recorded as “affected Mf motility but did not kill substantial numbers of worms”. In addition, the “concentration with significant effect on Mf output” value in assay [8] is no more than 100 nM.

Take `COc1c(C)cnc(Cn2cnc3c(Cl)nc(N)nc32)c1C` [BIIB021]: the values for the pIC50 in assay [6] and in assay [1] (setting [9]) were 7.80 and 7.85, respectively. Besides, the “concentration active on Mf” value in assay [2] (7 days, tested 4.0 µM to 0.976 nM) is on record as 4.0 µM. Also, the “% death by day 7” value in assay [2] (4.0 µM) turned out to be 100%. In addition, the “effect of lower concentrations on Mf” value in assay [2] (7 days) was “affected worm motility but did not kill the worms”. Besides, in assay [8], the “concentration with significant effect on Mf output” value is 2000 nM.

For the compound `CC1(C)CC(=O)c2c(C(F)(F)F)nn(-c3ccc(C(N)=O)c(N[C@H]4CCC[C@@H]4O)c3)c2C1` [SNX-9203], the pIC50 in assay [5] (FP assay, best fit (95% confidence intervals), read-out: HsHsp90α IC50) is 8.42; in assay [6] (setting [10]), 8.00; in assay [1] (setting [11]), 7.96. In assay [2], the “condition of Mf” value is recorded as “most worms were alive but were much less motile than controls”. For the same compound, the “% death by day 7” value in assay [2] (500 nM) is 90%. Besides, the “concentration with significant effect on Mf output” value in assay [8] was no more than 100 nM.

On to `Oc1cc(O)c(-c2noc3ccc(NCCN4CCOCC4)cc23)cc1Cl` [CAY10607], for which the pIC50 in assay [6] (setting [10]) is 8.80; in assay [1] (setting [11]), 7.80. For the same compound, the “higher affinity for B. pahangi Hsp90 compared to B. malayi Hsp90” value in assay [7] came to 10 fold.

As for `C=CCNC1=C2C[C@@H](C)C[C@H](OC)[C@H](O)[C@@H](C)/C=C(\C)[C@H](OC(N)=O)[C@@H](OC)/C=C\C=C(/C)C(=O)NC(=CC1=O)C2=O` [17-AAG], the pIC50 in assay [6] (setting [10]) was 8.10; in assay [1] (setting [11]), 8.60.

`CCNC(=O)c1[nH]nc(-c2cc(Cl)c(O)cc2O)c1-c1ccc(OC)cc1` [VER-49009]: the pIC50 in assay [6] (setting [10]) was 7.96; in assay [1] (setting [11]) it was 7.85.

For the compound `CC(C)NCCCn1c(Sc2cc3c(cc2I)OCO3)nc2c(N)ncnc21` [PU-H71], the figures for the pIC50 in assay [6] (setting [10]) and in assay [1] (setting [11]) were 7.77 and 7.57, respectively.

In the case of `CCNC(=O)c1noc(-c2cc(Cl)c(O)cc2O)c1-c1ccc(OC)cc1` [VER-50589], the negative logarithm of the IC50 (pIC50) in assay [6] (setting [10]) is 9.27; in assay [1] (setting [11]) it was 8.92.

Consider `CCc1cc(-c2n[nH]c(C)c2-c2ccc3c(c2)OCCO3)c(O)cc1O` [CCT018159], for which the pIC50 in assay [6] (setting [10]) is 6.62; in assay [1] (setting [11]) it was 6.48.

As for `CC1(C)CC(=O)c2c(C(F)(F)F)nn(-c3ccc(C(N)=O)c(N[C@H]4CC[C@H](O)CC4)c3)c2C1` [SNX-2112], the results for the pIC50 in assay [6] and in assay [1] (setting [9]) were 7.82 and 7.70, respectively. Moreover, in assay [2], the “condition of Mf” value was “very sluggish but still alive”. In addition, in assay [8], the “concentration with significant effect on Mf output” value worked out at 500 nM.

As usually defined, the pIC50 is −log10 of the IC50, conventionally taken in molar units. As usually defined, the pEC50 is the negative decadic logarithm of the EC50, by convention in mol/L.
